Results as given in patent US11701354B2, “Pyrazolo[3,4-b]pyrazine derivatives as SHP2 phosphatase inhibitors” (Relay Therapeutics, Inc., priority 2017, dated 2023).

Each compound was assayed against SHP2 (Homo sapiens (Human), UniProt Q06124) (assay: SHP2 Allosteric Inhibition Assay (DiFMUP prompt fluorescence)). Details: 0.25 nM SHP2 activated with 0.5 μM peptide IRS1_pY1172(dPEG8)pY1222; substrate DiFMUP 100 μM.
Format: biochemical
Text: SHP2 Allosteric Inhibition Assay.
SHP2 is allosterically activated through binding of bis-tyrosyl-phorphorylated peptides to its Src Homology 2 (SH2) domains. The latter activation step leads to the release of the auto-inhibitory interface of SHP2, which in turn renders the SHP2 protein tyrosine phosphatase (PTP) active and available for substrate recognition and reaction catalysis. The catalytic activity of SHP2 was monitored using the surrogate substrate DiFMUP in a prompt fluorescence assay format.
More specifically, the phosphatase reactions were performed at room temperature in 96-well black polystyrene plate, flat bottom, low flange, non-binding surface (Corning, Cat #3575) using a final reaction volume of 50 μl and the following assay buffer conditions: 60 mM HEPES, pH 7.2, 75 mM NaCl, 75 mM KCl, 1 mM EDTA 0.005% Brij-35, 5 mM DTT.
The inhibition of SHP2 by compounds of the disclosure (concentrations varying from 0.003-100 μM) was monitored using an assay in which 0.25 nM of SHP2 was incubated with of 0.5 μM of peptide IRSl_pY1172(dPEG8)pY1222 (sequence: H2N-LN(pY)IDLDLV(dPEG8)LST(pY)ASINFQK-amide). After 30-60 minutes incubation at 25° C. the surrogate substrate DiFMUP (Invitrogen, cat #D6567, 100 μM final) was added to the reaction and the conversion of DiFMUP to 6,8-difluoro-7-hydroxyl-4-methylcoumarin (DiFMU) was monitored continuously for 10 minutes with excitation at 355 nm and emission at 460 nm using a microplate reader (PolarStar, BMG). The inhibitor dose response curves were analyzed using normalized IC50 regression curve fitting with control based normalization.
Biochemical assay results for compounds of the disclosure are shown in examples and Table 1. In Table 1, A means an IC50 of less than 1 μM: B means an IC50 equal to 1 μM but less than 10 μM; and C means an IC50 of 10 μM or more.

| Structure (SMILES) | IC50 [nM] |
| --- | --- |
| N[C@@H]1CCCC[C@H]1Nc1cnc2c(-c3cccc(Cl)c3F)n[nH]c2n1 (mixture of isomers) [Example 5] | 1000 to 10000 |
| CN(c1cnc2c(N3CCCc4ncccc43)n[nH]c2n1)[C@@H]1COCC[C@@H]1N [Example 35] | ≥ 10000 |
| CN(c1cnc2c(N3CCCc4ncccc43)n[nH]c2n1)[C@H]1COC[C@H]1N (single isomer, unassigned) [Example 11] | ≥ 10000 |
| CN(c1cnc2c(-c3cccc(Cl)c3F)n[nH]c2n1)[C@H]1CCC[C@H]1N (mixture of isomers) [Example 1] | 1000 to 10000 |
| CN(c1cnc2c(N3CCCc4ncccc43)n[nH]c2n1)[C@H]1CCC[C@H]1N [Example 9] | ≥ 10000 |
| NC[C@H]1CCCC[C@H]1Nc1cnc2c(-c3cccc(Cl)c3F)n[nH]c2n1 (single isomer, unassigned) [Example 17] | 1000 to 10000 |
| CN(c1cnc2c(-c3cccc(Cl)c3F)n[nH]c2n1)[C@H]1CCCC[C@@H]1N (single isomer, unassigned) [Example 23] | 1000 to 10000 |
| N[C@@H]1CCCC[C@@H]1Nc1cnc2c(-c3cccc(Cl)c3F)n[nH]c2n1 (single isomer, unassigned) [Example 7] | 1000 to 10000 |
| NC[C@@H]1CCCC[C@H]1Nc1cnc2c(-c3cccc(Cl)c3F)n[nH]c2n1 (single isomer, unassigned) [Example 18] | 1000 to 10000 |
| CN(c1cnc2c(N3CCCc4ncccc43)n[nH]c2n1)[C@H]1CCOC[C@H]1N [Example 37] | ≥ 10000 |
| N[C@H]1CCCC[C@@H]1Nc1cnc2c(-c3cccc(Cl)c3F)n[nH]c2n1 [Example 6] | 1000 to 10000 |
| CN(C[C@@H]1CCC[C@H]1N)c1cnc2c(N3CCCc4ncccc43)n[nH]c2n1 (single isomer, unassigned) [Example 31] | ≥ 10000 |
| CN(c1cnc2c(N3CCCc4ncccc43)n[nH]c2n1)[C@@H]1CCC[C@@H]1N (single isomer, unassigned) [Example 8] | 1000 to 10000 |
| CN(c1cnc2c(N3CCCc4ncccc43)n[nH]c2n1)[C@@H]1CCCC[C@@H]1N (single isomer, unassigned) [Example 34] | 1000 to 10000 |
| CN(C[C@H]1CCC[C@@H]1N)c1cnc2c(N3CCCc4ncccc43)n[nH]c2n1 (single isomer, unassigned) [Example 32] | ≥ 10000 |
| CN(c1cnc2c(N3CCCc4ncccc43)n[nH]c2n1)[C@@H]1CCOC[C@@H]1N [Example 36] | 1000 to 10000 |
| CN(c1cnc2c(N3CCCc4ncccc43)n[nH]c2n1)[C@H]1CCCC[C@H]1N [Example 33] | ≥ 10000 |
| CN(c1cnc2c(Sc3ccccc3Cl)n[nH]c2n1)[C@@H]1CCCC[C@@H]1N [Example 42] | < 1000 |
| CN(c1cnc2c(-c3cccc(Cl)c3F)n[nH]c2n1)[C@@H]1CCC[C@@H]1N [Example 4] | < 1000 |
| CN(c1cnc2c(Oc3ccnc(Cl)c3Cl)n[nH]c2n1)[C@H]1CCCC[C@H]1N [Example 44] | 1000 to 10000 |
| CN(c1cnc2c(-c3cccc(Cl)c3F)n[nH]c2n1)[C@H]1CCCC[C@H]1CN [Example 39] | < 1000 |
| CN(c1cnc2c(N3CCCc4ncccc43)n[nH]c2n1)[C@@H]1COC[C@@H]1N (single isomer, unassigned) [Example 10] | ≥ 10000 |

The next lines start with the values.

| IC50 [nM] | Structure (SMILES) |
| --- | --- |
| < 1000 | CN(c1cnc2c(-c3ccnc(Cl)c3F)n[nH]c2n1)[C@@H]1CCCC[C@@H]1N [Example 30] |
| < 1000 | CN(c1cnc2c(-c3cccc(Cl)c3F)n[nH]c2n1)[C@H]1CCC[C@@H]1N [Example 3] |
| < 1000 | CN(c1cnc2c(-c3cccc(Cl)c3F)n[nH]c2n1)[C@H]1CCCC[C@@H]1CN [Example 40] |
| < 1000 | CN(C[C@H]1CC[C@H](N)C1)c1cnc2c(-c3cccc(Cl)c3F)n[nH]c2n1 [Example 25] |
| < 1000 | CN(c1cnc2c(-c3cccc(Cl)c3F)n[nH]c2n1)[C@H]1CCCC[C@@H]1N (mixture of isomers) [Example 19] |
| < 1000 | CN(c1cnc2c(-c3cccc(Cl)c3F)n[nH]c2n1)[C@H]1CCCC[C@H]1N (mixture of isomers) [Example 20] |
| < 1000 | CN(c1cnc2c(-c3cccc(Cl)c3F)n[nH]c2n1)[C@@H]1CCCC[C@H]1N (single isomer, unassigned) [Example 24] |
| < 1000 | CN(c1cnc2c(-c3cccc(Cl)c3F)n[nH]c2n1)[C@@H]1CCC[C@H]1N [Example 2] |
| < 1000 | CN(c1cnc2c(-c3cccc(Cl)c3F)n[nH]c2n1)[C@H]1CCC[C@@H]1CN (single isomer, unassigned) [Example 27] |
| < 1000 | CN(c1cnc2c(-c3cccc(Cl)c3F)n[nH]c2n1)[C@@H]1CCC[C@@H]1CN (single isomer, unassigned) [Example 26] |
| < 1000 | CN(c1cnc2c(-c3cccc(Cl)c3F)n[nH]c2n1)[C@@H]1CCCC[C@@H]1CN [Example 41] |
| < 1000 | CN(c1cnc2c(Sc3ccnc4[nH]ccc34)n[nH]c2n1)[C@@H]1CCCC[C@@H]1N [Example 43] |
| < 1000 | CN(c1cnc2c(-c3cccc(Cl)c3F)n[nH]c2n1)[C@H]1CCC[C@H]1CN (single isomer, unassigned) [Example 28] |
| < 1000 | CN(c1cnc2c(N3CCc4c(C(N)=O)cccc43)n[nH]c2n1)[C@@H]1CCCC[C@@H]1N [Example 46] |
| < 1000 | CN(c1cnc2c(-c3cccc(Cl)c3F)n[nH]c2n1)[C@@H]1CCC[C@H]1CN (single isomer, unassigned) [Example 29] |
| < 1000 | CN(c1cnc2c(Oc3ccnc(Cl)c3Cl)n[nH]c2n1)[C@@H]1CCCC[C@@H]1N [Example 45] |
| < 1000 | NC[C@H]1CCCC[C@H]1Nc1cnc2c(-c3cccc(Cl)c3F)n[nH]c2n1 (mixture of isomers) [Example 13] |
| < 1000 | NC[C@H]1CCCC[C@@H]1Nc1cnc2c(-c3cccc(Cl)c3F)n[nH]c2n1 (mixture of isomers) [Example 14] |
| < 1000 | CN(c1cnc2c(-c3cccc(Cl)c3F)n[nH]c2n1)[C@@H]1CCCC[C@H]1CN [Example 38] |
| < 1000 | CN(c1cnc2c(-c3cccc(Cl)c3F)n[nH]c2n1)[C@@H]1CCCC[C@@H]1N [Example 21] |
| < 1000 | NC[C@@H]1CCCC[C@@H]1Nc1cnc2c(-c3cccc(Cl)c3F)n[nH]c2n1 (single isomer, unassigned) [Example 15] |
